Patent US6737383B1, “Herbicidal oxadiazolidines” (priority 1999, dated 2004)

Columns and labels:
deadnettle = experiment: Test E deadnettle; type: in vivo, Lamium amplexicaule; settings: Postemergence
Protocol: (§1) Compounds evaluated in this test were formulated in a non-phytotoxic solvent mixture which included a surfactant and applied to plants that were in the 1- to 4-leaf stage (postemergence application). A mixture of sandy loam soil and greenhouse potting mix in a 60:40 ratio was used for the postemergence test.
(§2) Plantings of these crops and weed species were adjusted to produce plants of appropriate size for the postemergence test. All plant species were grown using normal greenhouse practices. Crop and weed species include annual bluegrass (Poa annua), blackgrass (Alopecurus myosuroides), black nightshade (Solanum nigra), chickweed (Stellaria media), common poppy (Papaver rhoeas), deadnettle (Lamium amplexicaule), downy brome (Bromus tectorum), field violet (Viola arvensis), galium (Galium aparine), green foxtail (Setaria viridis), Italian ryegrass (Lolium multiflorum), jointed goatgrass (Aegilops cylindrica), kochia (Kochia scoparia), lambsquarters (Chenopodium album), littleseed canarygrass (Phalaris minor), rape (Brassica napus), redroot pigweed (Amaranthus retroflexus), Russian thistle (Salsola kali), scentless chamomile (Matricaria inodora), spring barley (Hordeum vulgare), sugar beet (Beta vulgaris), sunflower (Helianthus annuus), ivyleaf speedwell (Veronica hederaefolia), spring wheat (Triticum aestivum), winter wheat (Triticum aestivum), wild buckwheat (Polygonum convolvulus), wild mustard (Sinapis arvensis), wild oat (Avena fatua), windgrass (Apera spica-venti) and winter barley (Hordeum vulgare).
(§3) Treated plants and untreated controls were maintained in a greenhouse for approximately 21 to 28 days, after which all treated plants were compared to untreated controls and visually evaluated. […] A dash response (-) means no test result.

green foxtail = experiment: Test E green foxtail; type: in vivo, Setaria viridis; settings: Postemergence
Procedure, shortened: (§4)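 For postemergence, sowings are timed so plants reach the 1- to 4-leaf stage at spraying. Test compound is applied in a surfactant-containing solvent mixture that is non-phytotoxic. Response is judged by eye against untreated controls after approximately 21 to 28 days.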

kochia = experiment: Test E kochia; type: in vivo, Kochia scoparia; settings: Postemergence
Protocol: as §1, §2, §3

lambsquarters [1] = experiment: Test E lambsquarters; type: in vivo, Chenopodium album; settings: Postemergence
Procedure, shortened: as §4

scentless chamomile [2] = experiment: Test E scentless chamomile; type: in vivo, Matricaria inodora; settings: Postemergence
Protocol: as §1, §2, §3

sugar beet [3] = experiment: Test E sugar beet; type: in vivo, Beta vulgaris; settings: Postemergence
Protocol: as §1, §2, §3

spring wheat = experiment: Test E spring wheat; type: in vivo, Triticum aestivum; settings: Postemergence
Protocol: as §1, §2, §3

wild mustard = experiment: Test E wild mustard; type: in vivo, Sinapis arvensis; settings: Postemergence
Protocol: […] A mixture of sandy loam soil and greenhouse potting mix in a 60:40 ratio was used for the postemergence test.
as §2, §3

wild oat = experiment: Test E wild oat; type: in vivo, Avena fatua; settings: Postemergence
Procedure, shortened: as §4

black nightshade = experiment: Test E black nightshade; type: in vivo, Solanum nigra; settings: Preemergence
galium = experiment: Test E galium; type: in vivo, Galium aparine; settings: Preemergence
lambsquarters [4] = experiment: Test E lambsquarters; type: in vivo, Chenopodium album; settings: Preemergence
Russian thistle = experiment: Test E Russian thistle; type: in vivo, Salsola kali; settings: Preemergence
scentless chamomile [5] = experiment: Test E scentless chamomile; type: in vivo, Matricaria inodora; settings: Preemergence
sugar beet [6] = experiment: Test E sugar beet; type: in vivo, Beta vulgaris; settings: Preemergence
windgrass = experiment: Test E windgrass; type: in vivo, Apera spica-venti; settings: Preemergence
[7] = Rate 250 g/ha, 0 to 100 scale (0 no effect, 100 complete control)
[8] = Rate 500 g/ha, 0 to 100 scale, 0 no effect, 100 complete control
[9] = Rate 125 g/ha, 0 to 100 scale (0 no effect, 100 complete control)
[10] = Rate 500 g/ha, 0 to 100 scale where 0 is no effect and 100 is complete control

With `CC(C)N(C(=O)n1oc(=O)n(C(C)C)c1=O)c1ccc(F)cc1F` [Compound 109] the “Plant response rating, Deadnettle” value (deadnettle; Rate 125 g/ha, 0 to 100 scale) was 0, the “Plant response rating, Deadnettle” value (deadnettle; [7]) was 30 and the “Plant response rating, Deadnettle” value (deadnettle; [8]) was 30. The “Plant response rating, Green foxtail” value (green foxtail; Rate 125 g/ha, 0 to 100 scale) was 30, the “Plant response rating, Green foxtail” value (green foxtail; [7]) was 65 and the “Plant response rating, Green foxtail” value (green foxtail; [8]) was 80. For the same compound, the “Plant response rating, Kochia” value (kochia; Rate 125 g/ha, 0 to 100 scale) was 30, the “Plant response rating, Kochia” value (kochia; [7]) was 30 and the “Plant response rating, Kochia” value (kochia; [8]) was 50. For the same compound, the “Plant response rating Lambsquarters” value (lambsquarters [1]; Rate 125 g/ha, 0 to 100 scale) was 20, the “Plant response rating Lambsquarters” value (lambsquarters [1]; [7]) was 30 and the “Plant response rating Lambsquarters” value (lambsquarters [1]; [8]) was 30. The “Plant response rating, Scentless chamo” value (scentless chamomile [2]; Rate 125 g/ha, 0 to 100 scale) was 0, the “Plant response rating, Scentless chamo” value (scentless chamomile [2]; [7]) was 0 and the “Plant response rating, Scentless chamo” value (scentless chamomile [2]; [8]) was 10. The “Plant response rating, Sugar beet” value (sugar beet [3]; Rate 125 g/ha, 0 to 100 scale) was 30, the “Plant response rating, Sugar beet” value (sugar beet [3]; [7]) was 35 and the “Plant response rating, Sugar beet” value (sugar beet [3]; [8]) was 30. The “Plant response rating, Spring Wheat” value (spring wheat; Rate 125 g/ha, 0 to 100 scale) was 30, the “Plant response rating, Spring Wheat” value (spring wheat; [7]) was 20 and the “Plant response rating, Spring Wheat” value (spring wheat; [8]) was 10. The “Plant response rating, Wild mustard” value (wild mustard; Rate 125 g/ha, 0 to 100 scale) was 40, the “Plant response rating, Wild mustard” value (wild mustard; [7]) was 50 and the “Plant response rating, Wild mustard” value (wild mustard; [8]) was 20. The “Plant response rating, Wild oat” value (wild oat; Rate 125 g/ha, 0 to 100 scale) was 0, the “Plant response rating, Wild oat” value (wild oat; [7]) was 0 and the “Plant response rating, Wild oat” value (wild oat; [8]) was 10. The “Plant response rating, Blk nightshade” value (black nightshade; [9]) was 75, the “Plant response rating, Blk nightshade” value (black nightshade; Rate 250 g/ha, 0 to 100 scale) was 90 and the “Plant response rating, Blk nightshade” value (black nightshade; [10]) was 90. For the same compound, the “Plant response rating, Galium” value (galium; [9]) was 100, the “Plant response rating, Galium” value (galium; Rate 250 g/ha, 0 to 100 scale) was 100 and the “Plant response rating, Galium” value (galium; [10]) was 100. For the same compound, the “Plant response rating Lambsquarters” value (lambsquarters [4]; [9]) was 60, the “Plant response rating Lambsquarters” value (lambsquarters [4]; Rate 250 g/ha, 0 to 100 scale) was 100 and the “Plant response rating Lambsquarters” value (lambsquarters [4]; [10]) was 100. For the same compound, the “Plant response rating, Russian thistle” value (Russian thistle; [9]) was 0, the “Plant response rating, Russian thistle” value (Russian thistle; Rate 250 g/ha, 0 to 100 scale) was 0 and the “Plant response rating, Russian thistle” value (Russian thistle; [10]) was 0. For the same compound, the “Plant response rating, Scentless chamo” value (scentless chamomile [5]; [9]) was 0, the “Plant response rating, Scentless chamo” value (scentless chamomile [5]; Rate 250 g/ha, 0 to 100 scale) was 30 and the “Plant response rating, Scentless chamo” value (scentless chamomile [5]; [10]) was 30. The “Plant response rating, Sugar beet” value (sugar beet [6]; [9]) was 0, the “Plant response rating, Sugar beet” value (sugar beet [6]; Rate 250 g/ha, 0 to 100 scale) was 60 and the “Plant response rating, Sugar beet” value (sugar beet [6]; [10]) was 70. For the same compound, the “Plant response rating, Windgrass” value (windgrass; [9]) was 100 and the “Plant response rating, Windgrass” value (windgrass; [10]) was 100.
